Measured values: ChEMBL document CHEMBL5241106, “Discovery of a Dual Tubulin and Poly(ADP-Ribose) Polymerase-1 Inhibitor by Structure-Based Pharmacophore Modeling, Virtual Screening, Molecular Docking, and Biological Evaluation” (J Med Chem, 2021)
Active and inactive are the calls of the source. The rule behind the calls is not given here.

What was measured:
MDA-MB-231 [1] = test: Inhibition of colony formation in human MDA-MB-231 cells at 2.5 uM measured after 10 days by crystal violet staining based analysis; format: functional; conditions: MDA-MB-231, 240 h, time 10 day
MCF-10A [2] = test: Induction of cell cycle arrest in human MCF-10A cells at 0.5 to 12.5 uM incubated for 48 hrs by propidium iodide staining based flow cytometry; format: toxicity; conditions: dose 0.5-12.5 µM
MCF-10A [3] = test: Induction of apoptosis in human MCF-10A cells at 0.5 to 12.5 uM incubated for 48 hrs by Annexin V-FITC/PI staining based flow cytometry; format: toxicity, cell-based; conditions: dose 0.5-12.5 µM
[4] = Hepatotoxicity in BALB/c mouse xenografted with human MDA-MB-231 cells assessed as effect on blood AST level at 1 to 5 mg/kg, ip administered every 4 days for 7 times measured at 48 hrs post-last administration; format: toxicity, organism-based; conditions: in vivo, 720 h, dose 1-5 mg/kg, time 30 day
Tubulin (Homo sapiens) [5] = target: T1, Tubulin (Homo sapiens) (UniProt P68371+Q9H4B7+P0DPH7+P68366+Q13509+Q71U36+P04350+Q3ZCM7+P07437+P68363+Q9BQE3+Q6PEY2+Q13885+Q9BVA1+Q9BUF5); test: Inhibition of tubulin polymerization in human MDA-MB-231 cells assessed as cell shrinkage, increase in nuclear disruption and microtubule dispersion at 0.5 to 2.5 uM incubated for 48 hrs by immunofluorescence assay; format: cell-based; conditions: dose 0.5-2.5 µM
[6] = target: Epidermal growth factor receptor (Homo sapiens, UniProt P00533); test: Inhibition of EGFR (unknown origin)
Chain of Epidermal growth factor receptor (P00533 whole entry): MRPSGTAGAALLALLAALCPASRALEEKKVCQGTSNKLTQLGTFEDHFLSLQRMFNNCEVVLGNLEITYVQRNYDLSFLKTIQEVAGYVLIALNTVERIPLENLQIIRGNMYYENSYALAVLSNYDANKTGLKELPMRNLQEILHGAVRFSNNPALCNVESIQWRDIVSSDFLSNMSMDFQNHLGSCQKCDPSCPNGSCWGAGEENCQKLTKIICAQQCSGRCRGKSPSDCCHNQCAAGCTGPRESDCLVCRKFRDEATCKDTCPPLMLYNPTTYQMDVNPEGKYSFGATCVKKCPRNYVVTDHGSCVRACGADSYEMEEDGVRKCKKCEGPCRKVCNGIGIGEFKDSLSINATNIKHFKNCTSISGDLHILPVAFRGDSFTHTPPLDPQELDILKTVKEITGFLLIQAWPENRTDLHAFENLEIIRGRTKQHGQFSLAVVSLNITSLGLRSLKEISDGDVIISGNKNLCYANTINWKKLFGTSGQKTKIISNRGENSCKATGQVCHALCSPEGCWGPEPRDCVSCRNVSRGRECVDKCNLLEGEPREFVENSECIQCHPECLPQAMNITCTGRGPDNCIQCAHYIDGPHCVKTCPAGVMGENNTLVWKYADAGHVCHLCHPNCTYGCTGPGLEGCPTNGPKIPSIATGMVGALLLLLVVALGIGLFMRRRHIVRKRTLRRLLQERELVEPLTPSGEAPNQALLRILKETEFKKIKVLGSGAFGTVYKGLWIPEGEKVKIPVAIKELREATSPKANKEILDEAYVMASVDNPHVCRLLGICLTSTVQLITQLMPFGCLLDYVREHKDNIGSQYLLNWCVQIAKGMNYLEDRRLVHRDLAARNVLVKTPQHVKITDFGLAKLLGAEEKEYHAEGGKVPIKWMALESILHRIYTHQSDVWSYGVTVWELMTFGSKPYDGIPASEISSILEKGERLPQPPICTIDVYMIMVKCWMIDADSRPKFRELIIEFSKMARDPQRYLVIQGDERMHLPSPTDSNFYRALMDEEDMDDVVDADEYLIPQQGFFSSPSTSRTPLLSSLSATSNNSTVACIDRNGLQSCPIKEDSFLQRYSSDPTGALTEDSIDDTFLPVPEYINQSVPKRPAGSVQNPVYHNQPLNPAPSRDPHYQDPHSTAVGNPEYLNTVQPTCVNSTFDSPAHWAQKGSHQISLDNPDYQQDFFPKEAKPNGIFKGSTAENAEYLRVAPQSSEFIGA

MDA-MB-231 [7] = test: Induction of apoptosis in human MDA-MB-231 cells assessed as late apoptotic cells at 2.5 uM incubated for 48 hrs by Annexin V-FITC/PI staining based flow cytometry (reference value: 5.06%); format: functional
MDA-MB-231 [8] = test: Induction of cell cycle arrest in human MDA-MB-231 cells assessed as proportion of cells at G2/M phase at 2.5 uM incubated for 48 hrs by propidium iodide staining based flow cytometry (reference value: 9.81%); format: functional
MDA-MB-231 [9] = test: Induction of apoptosis in human MDA-MB-231 cells assessed as increase in cleaved PARP level at 0.5 to 12.5 uM incubated for 48 hrs by western blot analysis; format: functional, cell-based; conditions: dose 0.5-12.5 µM
[10] = Selectivity index, ratio of IC50 for cytotoxicity against human MCF-10A cells to IC50 for cytotoxicity against human MDA-MB-231 cells; format: toxicity, cell-based; conditions: MCF-10A cells versus MDA-MB-231 cells, read-out: Ratio IC50
[11] = Toxicity in BALB/c mouse xenografted with human MDA-MB-231 cells assessed as increase in body weight at 1 to 5 mg/kg, ip administered every 4 days for 7 times; format: organism-based; conditions: in vivo, 672 h, dose 1-5 mg/kg, time 28 day
[12] = Toxicity in BALB/c mouse xenografted with human MDA-MB-231 cells assessed as effect on hemoglobin level at 1 to 5 mg/kg, ip administered every 4 days for 7 times measured at 48 hrs post-last administration; format: organism-based; conditions: in vivo, 720 h, dose 1-5 mg/kg, time 30 day
[13] = Toxicity in BALB/c mouse xenografted with human MDA-MB-231 cells assessed as change in liver morphological changes at 1 to 5 mg/kg, ip administered every 4 days for 7 times measured at 48 hrs post-last administration by H and E staining based fluorescence microscopic analysis; format: organism-based; conditions: in vivo, 720 h, dose 1-5 mg/kg, time 30 day
MDA-MB-231 [14] = test: Induction of cell cycle arrest in human MDA-MB-231 cells assessed as proportion of cells at G2/M phase at 0.5 uM incubated for 48 hrs by propidium iodide staining based flow cytometry (reference value: 9.81%); format: functional
[15] = Toxicity in BALB/c mouse xenografted with human MDA-MB-231 cells assessed as change in spleen morphological changes at 1 to 5 mg/kg, ip administered every 4 days for 7 times measured at 48 hrs post-last administration by H and E staining based fluorescence microscopic analysis; format: organism-based; conditions: in vivo, 720 h, dose 1-5 mg/kg, time 30 day
MDA-MB-231 [16] = test: Induction of apoptosis in human MDA-MB-231 cells assessed as apoptotic body formation by measuring change in cell morphology with disruption of cell nuclei incubated for 24 hrs by DAPI staining based confocal laser microscopy; format: functional; conditions: dose 0.5-12.5 µM
CDK4/Cyclin D3 = CDK4/Cyclin D3 (Homo sapiens, UniProt P11802); test: Inhibition of CDK4/Cyclin D3 (unknown origin); format: protein-complex assay
Chain of CDK4/Cyclin D3 (P11802 whole entry): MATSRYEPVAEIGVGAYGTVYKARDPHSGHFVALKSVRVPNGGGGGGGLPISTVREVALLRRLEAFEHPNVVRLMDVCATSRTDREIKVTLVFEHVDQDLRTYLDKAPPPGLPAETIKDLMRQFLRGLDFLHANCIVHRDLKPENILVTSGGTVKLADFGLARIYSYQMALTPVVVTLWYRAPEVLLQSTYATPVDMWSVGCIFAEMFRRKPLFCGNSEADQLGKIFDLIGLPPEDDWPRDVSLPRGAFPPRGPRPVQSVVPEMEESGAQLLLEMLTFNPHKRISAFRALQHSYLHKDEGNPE
Chain of CDK4/Cyclin D3 (P30281 whole entry, further chain): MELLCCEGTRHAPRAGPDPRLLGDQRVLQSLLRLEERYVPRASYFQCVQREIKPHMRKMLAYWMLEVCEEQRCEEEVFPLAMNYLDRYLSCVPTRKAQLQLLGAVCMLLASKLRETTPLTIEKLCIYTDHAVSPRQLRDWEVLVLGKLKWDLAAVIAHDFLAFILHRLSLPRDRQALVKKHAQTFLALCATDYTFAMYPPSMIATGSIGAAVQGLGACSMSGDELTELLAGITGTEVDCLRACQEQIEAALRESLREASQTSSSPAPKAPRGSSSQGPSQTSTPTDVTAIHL

[17] = Cytotoxicity against human MCF-10A cells assessed as inhibition of cell growth incubated for 72 hrs by MTT assay; format: toxicity, cell-based
MDA-MB-231 [18] = test: Cytotoxicity against human MDA-MB-231 cells assessed as inhibition of cell growth incubated for 72 hrs by MTT assay; format: functional, cell-based
MDA-MB-231 [19] = test: Induction of apoptosis in human MDA-MB-231 cells assessed as early apoptotic cells at 0.5 uM incubated for 48 hrs by Annexin V-FITC/PI staining based flow cytometry (reference value: 1.71%); format: functional
[20] = Renal toxicity in BALB/c mouse xenografted with human MDA-MB-231 cells assessed as effect on blood urea nitrogen level at 1 to 5 mg/kg, ip administered every 4 days for 7 times measured at 48 hrs post-last administration; format: organism-based; conditions: in vivo, 720 h, dose 1-5 mg/kg, time 30 day
Tubulin (Homo sapiens) [21] = target: T1, Tubulin (Homo sapiens); test: Inhibition of tubulin polymerization in human MDA-MB-231 cells assessed as blurred or disappeared nucleus and destruction of normal microtubule network at 12.5 uM incubated for 48 hrs by immunofluorescence assay; format: cell-based
HeLa = test: Cytotoxicity against human HeLa cells assessed as inhibition of cell growth incubated for 72 hrs by MTT assay; format: functional, cell-based
MDA-MB-231 [22] = test: Anticancer activity against human MDA-MB-231 cells xenografted in BALB/c mouse assessed as reduction in tumor volume at 5 mg/kg, ip administered for every 4 days for 7 times; format: functional, organism-based; conditions: time 28.0 day
Tubulin = test: Inhibition of tubulin polymerization (unknown origin) by turbidimetric analysis; format: protein-complex assay, Homo sapiens; conditions: read-out: IC50
HUVEC = test: […] of angiogenesis in human HUVEC cells assessed as inhibition of capillary tube formation incubated for 8 hrs by inverted microscopic analysis; format: functional, cell-based; conditions: dose 0.5-12.5 µM
[23] = target: Poly [ADP-ribose] polymerase 1 (Homo sapiens, UniProt P09874); test: Inhibition of PARP-1 in human MDA-MB-231 cells assessed as induction of double strand DNA breaks by measuring increase in gammaH2AX level at 2.5 to 12.5 uM incubated for 48 hrs by western blotting analysis; format: cell-based; conditions: dose 2.5-12.5 µM
Chain of Poly [ADP-ribose] polymerase 1 (P09874 whole entry): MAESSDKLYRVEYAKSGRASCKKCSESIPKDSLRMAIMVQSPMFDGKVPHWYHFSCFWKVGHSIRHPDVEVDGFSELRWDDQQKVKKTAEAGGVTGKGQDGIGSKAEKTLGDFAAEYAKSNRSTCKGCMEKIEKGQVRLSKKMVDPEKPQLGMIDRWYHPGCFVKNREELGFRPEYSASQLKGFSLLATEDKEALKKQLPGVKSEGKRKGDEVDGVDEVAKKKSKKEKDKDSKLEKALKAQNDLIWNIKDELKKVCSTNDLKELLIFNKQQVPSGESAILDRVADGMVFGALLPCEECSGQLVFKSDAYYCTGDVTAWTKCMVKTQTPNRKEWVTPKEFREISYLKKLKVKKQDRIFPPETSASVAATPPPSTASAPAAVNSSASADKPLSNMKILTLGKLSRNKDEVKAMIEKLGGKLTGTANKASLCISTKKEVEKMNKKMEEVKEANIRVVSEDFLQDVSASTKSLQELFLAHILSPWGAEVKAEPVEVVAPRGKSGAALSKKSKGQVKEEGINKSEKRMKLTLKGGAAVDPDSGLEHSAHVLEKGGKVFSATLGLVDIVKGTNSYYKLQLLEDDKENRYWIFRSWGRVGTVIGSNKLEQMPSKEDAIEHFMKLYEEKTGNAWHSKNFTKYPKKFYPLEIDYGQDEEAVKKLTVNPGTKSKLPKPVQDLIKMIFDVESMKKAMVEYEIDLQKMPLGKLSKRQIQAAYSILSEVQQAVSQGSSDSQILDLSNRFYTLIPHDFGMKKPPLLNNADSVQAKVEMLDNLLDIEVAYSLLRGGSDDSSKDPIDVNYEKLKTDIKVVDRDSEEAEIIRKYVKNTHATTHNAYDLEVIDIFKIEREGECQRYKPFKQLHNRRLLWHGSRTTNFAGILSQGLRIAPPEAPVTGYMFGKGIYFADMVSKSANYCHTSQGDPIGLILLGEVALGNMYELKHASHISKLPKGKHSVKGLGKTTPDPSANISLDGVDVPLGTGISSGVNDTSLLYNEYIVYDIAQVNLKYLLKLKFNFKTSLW

[24] = Toxicity in BALB/c mouse xenografted with human MDA-MB-231 cells assessed as change in kidney morphological changes at 1 to 5 mg/kg, ip administered every 4 days for 7 times measured at 48 hrs post-last administration by H and E staining based fluorescence microscopic analysis; format: organism-based; conditions: in vivo, 720 h, dose 1-5 mg/kg, time 30 day
[25] = target: Phosphatidylinositol 4,5-bisphosphate 3-kinase catalytic subunit gamma isoform (Homo sapiens, UniProt P48736); test: Inhibition of PI3KCG (unknown origin)
Chain of Phosphatidylinositol 4,5-bisphosphate 3-kinase catalytic subunit gamma isoform (P48736 whole entry, canonical isoform): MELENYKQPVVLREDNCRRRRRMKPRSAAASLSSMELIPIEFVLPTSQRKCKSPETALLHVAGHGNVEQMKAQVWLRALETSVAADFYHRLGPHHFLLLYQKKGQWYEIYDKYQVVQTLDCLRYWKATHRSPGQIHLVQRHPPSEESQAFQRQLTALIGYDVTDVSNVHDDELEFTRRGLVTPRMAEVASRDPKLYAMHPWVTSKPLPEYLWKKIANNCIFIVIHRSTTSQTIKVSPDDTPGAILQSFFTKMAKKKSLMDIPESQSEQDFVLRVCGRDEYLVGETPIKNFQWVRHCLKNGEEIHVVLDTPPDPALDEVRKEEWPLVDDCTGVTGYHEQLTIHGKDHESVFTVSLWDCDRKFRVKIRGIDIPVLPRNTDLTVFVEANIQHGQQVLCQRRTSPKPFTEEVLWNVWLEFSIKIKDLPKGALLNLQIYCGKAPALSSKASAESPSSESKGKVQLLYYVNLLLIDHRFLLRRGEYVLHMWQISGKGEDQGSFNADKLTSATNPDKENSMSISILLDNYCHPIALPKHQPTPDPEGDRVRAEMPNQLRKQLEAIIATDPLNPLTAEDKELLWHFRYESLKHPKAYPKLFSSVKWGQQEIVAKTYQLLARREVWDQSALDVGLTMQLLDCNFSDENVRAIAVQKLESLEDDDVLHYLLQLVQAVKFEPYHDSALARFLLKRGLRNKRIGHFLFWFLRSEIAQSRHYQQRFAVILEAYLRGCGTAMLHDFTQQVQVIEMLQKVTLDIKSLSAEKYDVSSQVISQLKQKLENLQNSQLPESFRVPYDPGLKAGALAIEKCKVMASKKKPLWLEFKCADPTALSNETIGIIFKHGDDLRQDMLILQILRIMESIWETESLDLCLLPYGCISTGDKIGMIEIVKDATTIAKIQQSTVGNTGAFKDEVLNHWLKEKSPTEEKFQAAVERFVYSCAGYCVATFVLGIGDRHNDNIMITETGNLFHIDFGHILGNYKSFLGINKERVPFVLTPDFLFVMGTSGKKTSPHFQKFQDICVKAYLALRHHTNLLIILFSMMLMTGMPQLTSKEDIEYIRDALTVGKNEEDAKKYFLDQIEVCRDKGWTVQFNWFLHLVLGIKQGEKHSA

[26] = Renal toxicity in BALB/c mouse xenografted with human MDA-MB-231 cells assessed as effect on blood creatinine level at 1 to 5 mg/kg, ip administered every 4 days for 7 times measured at 48 hrs post-last administration; format: organism-based; conditions: in vivo, 720 h, dose 1-5 mg/kg, time 30 day
MDA-MB-231 [27] = test: Induction of apoptosis in human MDA-MB-231 cells assessed as viable cells at 2.5 uM incubated for 48 hrs by Annexin V-FITC/PI staining based flow cytometry (reference value: 91.4%); format: functional; conditions: read-out: Activity

O=c1[nH]c(/C=C/c2cccc(F)c2)nc2ccccc12
inhibition at 2.5 µM (MDA-MB-231 [1]): 100%
Activity (MCF-10A [2]): Non-Toxic
Activity (MCF-10A [3]): Non-Toxic
Activity [4]: Non-Toxic
inhibition (Tubulin (Homo sapiens) [5]): Active
IC50 [6]: > 10 µM
Activity (MDA-MB-231 [7]): 6.62%
Activity (MDA-MB-231 [8]): 33.56%
Activity (MDA-MB-231 [9]): Active
selectivity ratio [10]: > 14
Activity [11]: Toxic
Activity [12]: Non-Toxic
Activity [13]: Non-Toxic
Activity (MDA-MB-231 [14]): 23.57%
Activity [15]: Non-Toxic
Activity (MDA-MB-231 [16]): Dose-Dependent Effect
IC50 (CDK4/Cyclin D3): > 10 µM
IC50 at 72 h [17]: > 10 µM
Activity (MDA-MB-231 [18]): Active
Activity (MDA-MB-231 [19]): 2.16%
Activity [20]: Non-Toxic
inhibition (Tubulin (Homo sapiens) [21]): Active
IC50 (HeLa): 1.5 µM
Activity (MDA-MB-231 [22]): Active
IC50 (Tubulin): 0.94 µM
Activity (HUVEC): Dose-Dependent Effect
inhibition [23]: Active
Activity [24]: Non-Toxic
IC50 [25]: > 10 µM
Activity [26]: Non-Toxic
viability at 2.5 µM (MDA-MB-231 [27]): 90.2%
